Calls of active or inactive are those of the source. No stated cut-off is given here; in the data, actives have a measured IC50 and inactives only a lower limit.

For the assay, the target named is Envelope glycoprotein gp160 (Human immunodeficiency virus 1, UniProt Q6QLK5). The experiment in a line: cell-free HIV fusion peptide-binding blockers – biochemical, uHTS, fluorescence dequenching, […] (AID 1986).
Sequence of Envelope glycoprotein gp160 (Q6QLK5 whole entry, the tested form may be a part): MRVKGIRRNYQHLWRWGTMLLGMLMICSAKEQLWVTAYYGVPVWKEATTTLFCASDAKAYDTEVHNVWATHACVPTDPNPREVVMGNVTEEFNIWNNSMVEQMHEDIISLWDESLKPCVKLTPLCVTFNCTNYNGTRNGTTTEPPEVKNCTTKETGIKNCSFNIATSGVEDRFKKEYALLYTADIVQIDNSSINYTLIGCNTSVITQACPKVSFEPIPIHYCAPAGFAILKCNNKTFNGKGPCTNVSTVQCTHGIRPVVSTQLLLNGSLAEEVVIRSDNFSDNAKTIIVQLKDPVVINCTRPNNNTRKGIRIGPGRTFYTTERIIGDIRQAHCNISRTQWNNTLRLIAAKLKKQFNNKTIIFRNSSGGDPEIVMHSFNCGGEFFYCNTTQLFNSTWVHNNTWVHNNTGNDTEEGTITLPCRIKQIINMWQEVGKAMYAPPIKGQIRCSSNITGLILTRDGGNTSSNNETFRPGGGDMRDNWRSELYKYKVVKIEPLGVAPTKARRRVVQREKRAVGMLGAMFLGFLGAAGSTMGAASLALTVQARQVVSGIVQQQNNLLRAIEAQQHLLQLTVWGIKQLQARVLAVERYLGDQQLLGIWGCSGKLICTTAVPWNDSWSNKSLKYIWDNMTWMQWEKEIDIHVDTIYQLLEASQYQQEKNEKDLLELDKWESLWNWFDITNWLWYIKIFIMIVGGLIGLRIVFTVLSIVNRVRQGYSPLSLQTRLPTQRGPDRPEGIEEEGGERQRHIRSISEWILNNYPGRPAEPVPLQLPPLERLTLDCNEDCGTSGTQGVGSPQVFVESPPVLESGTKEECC
Regarding `COc1ccc(/N=C2\S/C(=C\c3ccc(OCC(=O)O)cc3)C(=O)N2CCc2c[nH]c3ccccc23)cc1`, the 50% inhibitory concentration (IC50) (in general, the point on the concentration scale where inhibition reaches its midpoint) is 12.6 µM (active). The result for `CC(C)NC(=O)c1sc(=S)n2c1[nH]c(=O)c1ccc(C(=O)NCCc3ccc(Cl)cc3)cc12` reads 95.7 µM (active). The result for `CC1=NN(c2ccc(C(=O)O)cc2)C(=O)/C1=C\c1ccc(OC(=O)c2cccs2)cc1` reads 12.6 µM (active); that for `O=C(O)COc1ccc(Br)cc1C(c1c(C(=O)O)[nH]c2ccccc12)c1c(C(=O)O)[nH]c2ccccc12`, 5.76 µM (active).

Source of the values: ChEMBL document CHEMBL1201862, “PubChem BioAssay data set” (2004).
